Measured values taken from patent US20120122840A1, “COMPOUNDS AND THERAPEUTIC USES THEREOF” (Myrexis, Inc., priority 2009, published 2012).

How the values were obtained:
FER [1] = molecular target: T1, FER (Homo sapiens, UniProt P16591); assay: In vitro binding assays
FER [2] = molecular target: T1, FER; assay: Direct target affinity purification (DTAP) from cell lysates; assay type: binding; conditions: compound coupled to Sepharose beads
Text: (§1) Direct target affinity purification (DTAP) was used to investigate (1) the selectivity of compounds of the invention for TTK, relative to other kinases, and (2) the importance of a specific methyl substituent in providing that selectivity.
(§2) In preparation for DTAP studies, the two compounds depicted above were synthesized with an alkyl-amine linker to allow covalent coupling to epoxy-activated Sepharose 6B beads (GE Healthcare, Piscataway, N.J.). Sepharose beads were swollen and washed with water for 30 min followed by equilibration in coupling buffer (50% dimethylformamide, 50 mM Na2CO3). Beads were pelleted by centrifugation (15 sec at 2000×g) and the supernatant removed by aspiration. An equal volume of coupling buffer containing the linkered test compound was used to resuspend the beads. Compound concentrations in the coupling reaction ranged from 0.1 mM to 12.5 mM. The coupling reactions were incubated at 34° C. for 18 hrs on a rotator mixer. Ethanolamine was added to 1 M for the final 1 hr to quench the coupling reaction. Beads were washed extensively with binding buffer (1 M NaCl, 50 mM Hepes [pH 7.4], 1% Triton X-100, 1 mM EDTA and 1 mM dithiothreitol) to remove residual coupling reagents, and were then stored at 4° C.
(§3) Cellular proteins were prepared by mild sonication in lysis buffer (150 mM NaCl, 50 mM Hepes [pH 7.4], 1% Triton X-100, 1 mM EDTA and 2 mM dithiothrietol containing 1× Halt™ protease and phosphatase inhibitor cocktail [Thermo Fisher Scientific, Rockford, Ill.]). Lysates were centrifuged (20,000×g for 20 min) to remove debris, diluted to a protein concentration of ˜5 mg/ml, divided into aliquots, and stored at −80° C.
(§4) For DTAP reactions, cell lysates (˜0.5 ml per binding reaction) were thawed and the NaCl concentration adjusted to 1 M. Competitor compounds dissolved in DMSO (or a DMSO control) were then added to the lysate and incubated on ice for 5 min. The lysates were centrifuged at 20,000×g for 10 min and the cleared supernatant was transferred to a tube containing 50 μl of coupled beads. The binding reactions were incubated on a rotator mixer at 4° C. for 2 hrs, after which the beads were pelleted by centrifugation and the supernatant removed by aspiration. The beads were washed three times with 20 volumes of binding buffer, 2× with 20 volumes wash buffer (150 mM NaCl, 50 mM Hepes [pH 7.4], 1% Tween 20, 1 mM EDTA, 2 mM dithiothrietol) and finally twice with 10 volumes of 150 mM NaCl, 50 mM Hepes [pH 7.4].
(§5) During the final wash, an aliquot containing 10 μl of beads was transferred to a separate tube and resuspended with 15 μl of 2× SDS/PAGE loading buffer (Invitrogen Corporation, Carlsbad, Calif.) for 5 min at 90° C. The eluted proteins were resolved by electrophoresis on a NuPage 4-12% Bis-Tris Gel (Invitrogen Corporation, Carlsbad, Calif.) and visualized by staining with Ruby Red (Invitrogen Corporation, Carlsbad, Calif.). The remaining beads (40 μl) were processed for analysis by mass spectrometry.

JNK [3] = molecular target: T2, JNK (Homo sapiens, UniProt P45983); assay: as above; assay type: binding; conditions: compound coupled to Sepharose beads
Text: as §1, §2, §3, §4, §5

Aurora A = molecular target: T3, Aurora A (Homo sapiens, UniProt O14965); assay: as above; assay type: binding; conditions: compound coupled to Sepharose beads
T3 sequence (O14965 1-403): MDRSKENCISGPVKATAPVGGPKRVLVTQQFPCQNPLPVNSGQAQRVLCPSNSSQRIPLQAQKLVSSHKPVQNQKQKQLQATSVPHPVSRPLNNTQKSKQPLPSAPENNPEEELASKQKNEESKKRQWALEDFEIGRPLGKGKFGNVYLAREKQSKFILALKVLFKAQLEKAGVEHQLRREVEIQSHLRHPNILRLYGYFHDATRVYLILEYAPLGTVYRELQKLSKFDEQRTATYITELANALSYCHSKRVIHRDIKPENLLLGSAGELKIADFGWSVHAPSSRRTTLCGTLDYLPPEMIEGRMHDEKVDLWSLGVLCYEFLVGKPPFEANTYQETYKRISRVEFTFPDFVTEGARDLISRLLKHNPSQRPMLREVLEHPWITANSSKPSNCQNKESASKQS
Text: as §1, §2, §3, §4, §5

JAK1 = molecular target: T4, JAK1 (Homo sapiens, UniProt P23458); assay: as above; assay type: binding; conditions: compound coupled to Sepharose beads
T4 construct: Cellular proteins were prepared by mild sonication in lysis buffer; endogenous in cells
Text: as §1, §2, §3, §4, §5

TTK = molecular target: T5, TTK (Homo sapiens, UniProt P33981); assay: as above; assay type: binding; conditions: compound coupled to Sepharose beads
T5 sequence (P33981 1-857): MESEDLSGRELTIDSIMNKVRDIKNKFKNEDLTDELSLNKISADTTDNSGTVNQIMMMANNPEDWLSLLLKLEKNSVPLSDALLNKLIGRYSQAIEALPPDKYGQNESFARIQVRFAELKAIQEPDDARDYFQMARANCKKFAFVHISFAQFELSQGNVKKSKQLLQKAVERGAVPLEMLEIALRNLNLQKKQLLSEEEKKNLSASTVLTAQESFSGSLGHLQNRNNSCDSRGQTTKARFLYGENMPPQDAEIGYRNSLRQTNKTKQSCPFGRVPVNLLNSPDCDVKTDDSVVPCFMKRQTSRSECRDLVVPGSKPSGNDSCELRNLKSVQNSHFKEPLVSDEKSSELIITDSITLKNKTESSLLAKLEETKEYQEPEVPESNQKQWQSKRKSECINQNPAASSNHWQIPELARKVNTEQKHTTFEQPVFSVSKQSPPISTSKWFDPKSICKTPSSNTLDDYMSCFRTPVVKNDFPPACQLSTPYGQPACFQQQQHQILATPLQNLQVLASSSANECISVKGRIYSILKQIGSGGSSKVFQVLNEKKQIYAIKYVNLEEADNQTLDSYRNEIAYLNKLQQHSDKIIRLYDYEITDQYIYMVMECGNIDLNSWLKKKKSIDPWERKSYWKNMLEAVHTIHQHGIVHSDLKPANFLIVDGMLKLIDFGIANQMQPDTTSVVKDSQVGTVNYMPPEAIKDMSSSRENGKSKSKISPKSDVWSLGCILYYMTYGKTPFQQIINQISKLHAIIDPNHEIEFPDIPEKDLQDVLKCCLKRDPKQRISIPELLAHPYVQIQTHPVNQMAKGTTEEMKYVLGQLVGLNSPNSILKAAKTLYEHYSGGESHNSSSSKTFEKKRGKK
Text: as §1, §2, §3, §4, §5

JNK [4] = molecular target: T2, JNK; assay: In vitro binding assays

T1 sequence (P16591 whole entry, species assumed): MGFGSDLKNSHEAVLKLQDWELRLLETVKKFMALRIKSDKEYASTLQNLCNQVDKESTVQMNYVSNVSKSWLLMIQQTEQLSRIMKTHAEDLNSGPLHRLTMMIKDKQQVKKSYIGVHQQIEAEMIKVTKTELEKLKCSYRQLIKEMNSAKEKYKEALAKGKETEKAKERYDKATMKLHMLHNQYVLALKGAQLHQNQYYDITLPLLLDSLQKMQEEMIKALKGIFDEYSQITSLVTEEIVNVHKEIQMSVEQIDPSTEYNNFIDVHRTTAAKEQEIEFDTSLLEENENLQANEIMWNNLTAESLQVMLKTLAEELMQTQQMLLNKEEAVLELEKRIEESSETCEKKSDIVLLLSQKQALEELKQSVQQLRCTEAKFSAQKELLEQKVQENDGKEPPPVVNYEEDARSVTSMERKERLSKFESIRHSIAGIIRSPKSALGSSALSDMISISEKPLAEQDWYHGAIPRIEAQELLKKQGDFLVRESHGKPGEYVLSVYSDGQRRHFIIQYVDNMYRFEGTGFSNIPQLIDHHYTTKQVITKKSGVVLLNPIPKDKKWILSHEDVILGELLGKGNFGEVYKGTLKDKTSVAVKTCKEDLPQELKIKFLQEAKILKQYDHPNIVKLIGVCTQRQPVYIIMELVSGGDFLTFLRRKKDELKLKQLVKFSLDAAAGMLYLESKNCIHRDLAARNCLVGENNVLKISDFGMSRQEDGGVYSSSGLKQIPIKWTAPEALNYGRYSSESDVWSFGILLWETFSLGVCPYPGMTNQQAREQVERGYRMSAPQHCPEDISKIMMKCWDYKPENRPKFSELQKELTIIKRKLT
T2 sequence (P45983 whole entry): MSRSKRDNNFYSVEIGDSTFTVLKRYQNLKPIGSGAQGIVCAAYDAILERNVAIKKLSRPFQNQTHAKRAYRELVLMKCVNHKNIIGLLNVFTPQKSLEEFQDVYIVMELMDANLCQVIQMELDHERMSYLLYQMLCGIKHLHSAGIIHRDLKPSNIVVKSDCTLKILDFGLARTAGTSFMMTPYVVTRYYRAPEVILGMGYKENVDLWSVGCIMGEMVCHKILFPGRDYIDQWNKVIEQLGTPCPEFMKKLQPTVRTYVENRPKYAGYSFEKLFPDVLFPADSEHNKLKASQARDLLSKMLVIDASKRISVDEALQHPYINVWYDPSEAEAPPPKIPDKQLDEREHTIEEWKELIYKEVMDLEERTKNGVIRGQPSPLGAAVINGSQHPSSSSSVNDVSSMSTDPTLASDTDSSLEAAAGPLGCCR
T4 sequence (P23458 whole entry, species assumed): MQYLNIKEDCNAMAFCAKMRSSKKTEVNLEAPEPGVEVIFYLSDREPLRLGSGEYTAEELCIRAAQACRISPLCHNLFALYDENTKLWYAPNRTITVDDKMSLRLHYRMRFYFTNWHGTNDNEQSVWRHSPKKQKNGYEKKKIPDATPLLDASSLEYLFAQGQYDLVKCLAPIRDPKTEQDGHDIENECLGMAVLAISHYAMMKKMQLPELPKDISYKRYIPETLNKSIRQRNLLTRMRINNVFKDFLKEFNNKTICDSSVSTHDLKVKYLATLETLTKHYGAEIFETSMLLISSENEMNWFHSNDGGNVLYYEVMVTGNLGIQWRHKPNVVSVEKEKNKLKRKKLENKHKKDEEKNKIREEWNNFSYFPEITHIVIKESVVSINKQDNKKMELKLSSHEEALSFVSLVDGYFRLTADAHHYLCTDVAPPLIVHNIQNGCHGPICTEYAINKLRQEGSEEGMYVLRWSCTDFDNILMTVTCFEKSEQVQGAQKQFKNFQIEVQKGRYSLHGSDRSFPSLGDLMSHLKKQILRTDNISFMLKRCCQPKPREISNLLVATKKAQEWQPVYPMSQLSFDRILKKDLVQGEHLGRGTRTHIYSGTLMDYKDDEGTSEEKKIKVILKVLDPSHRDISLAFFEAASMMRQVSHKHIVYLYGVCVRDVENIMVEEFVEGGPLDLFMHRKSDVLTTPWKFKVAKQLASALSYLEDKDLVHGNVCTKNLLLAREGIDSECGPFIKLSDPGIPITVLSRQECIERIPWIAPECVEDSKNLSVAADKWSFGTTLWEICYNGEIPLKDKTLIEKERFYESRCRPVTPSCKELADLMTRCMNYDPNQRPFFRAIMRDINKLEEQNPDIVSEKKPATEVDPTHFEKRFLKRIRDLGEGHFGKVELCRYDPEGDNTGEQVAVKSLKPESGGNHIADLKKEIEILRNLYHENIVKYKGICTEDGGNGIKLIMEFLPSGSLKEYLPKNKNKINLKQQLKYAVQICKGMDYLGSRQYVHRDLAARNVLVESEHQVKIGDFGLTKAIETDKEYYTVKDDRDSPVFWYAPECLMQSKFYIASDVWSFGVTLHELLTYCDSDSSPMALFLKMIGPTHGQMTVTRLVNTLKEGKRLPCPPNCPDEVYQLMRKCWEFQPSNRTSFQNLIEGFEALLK

IC50 (FER [1]): 15 nM
binding of FER from cell lysates to bead-coupled compound (FER [2]): found to bind
binding of JNK from cell lysates to bead-coupled compound (JNK [3]): found to bind
binding of Aurora A from cell lysates to bead-coupled compound (Aurora A): found to bind
binding of JAK1 from cell lysates to bead-coupled compound (JAK1): found to bind
binding of TTK from cellular lysates to bead-coupled compound (TTK): high affinity
IC50 (JNK [4]): 57 nM
Compound: NCCCOc1ccc(Nc2nc(NC3CCCCC3)c3nc[nH]c3n2)cc1 [N2-[4-(3-aminopropoxy)phenyl]-N-6-cyclohexyl-9H-purine-2,6-diamine]
